Source: patent publication US20170000866A1, “METHOD FOR EMULSIFYING A TRIEPITOPE PEPTIDE WITH MONTANIDE AND KITS FOR PERFORMING THE SAME” (VAXON BIOTECH, priority 2013, published 2017)
Ends that are not written are not given here.

Experiment: Vx006 solubilisation in solvents for injection
Format: physicochemical
Settings: in water for injection
Protocol: For vaccinating a patient, 1 ml of solvent is added on the lyocake to resuspend the peptide, 0.7 ml of peptide in solution is then loaded in a silicone free syringe and 0.7 ml of MONTANIDE ISA51VG in a second syringe. Both syringes are then connected to the I-connector for the emulsification protocol.
According to SEPPIC recommendations, to the fact that the emulsion is performed for human administration (preventing the use of solvents as DMSO etc.), results presented in Example 1 above and solubility prediction, Vx006 was initially diluted in saline buffer. Two saline solvents were tested, NaCl 0.9% and PBS. […] Moreover, the addition of several solvents developed by Seppic and compatible with injection in humans and emulsion with MONTANIDE were tested during the Vx006 manufacturing development.
The vial can be gently agitated to accelerate the dissolution, if necessary. The dissolution can also be performed at cold temperature (0-10° C.).

- Solubility: perfectly soluble
- pH of the solubilised peptide: around 7
Sequence: YLQVNSLQTVYLEYRQVPVYLEEITGYL [Vx006]
